Experimental data as given in US12435091B2, “RNA-binding protein multimerization inhibitors and methods of use thereof” (THE UAB RESEARCH FOUNDATION, priority 2020, dated 2025).
In brackets after ≈: the same amount, converted by molar mass. Where two headings read alike, the source gives them in different places.

Tests used:
[1] = Mouse liver microsomal stability in vitro; type: in vitro ADME; details: liver microsomes, read-out: MLM t1/2
Method: (§2) Selected compounds were assessed for their aqueous solubility, Log D and mouse and human liver microsomal stability.

[2] = in vitro; details: human, liver microsomes
Method: as §2

[3] = test system: U251 cells expressing Fluc construct; experiment: control Fluc (full length luciferase) reporter assay in U251 cells; type: cell-based; details: for inhibition at 50 µM: Concn 50 uM; for inhibition at 25 µM: Concn 25 uM
Method: The oncogenic activity of HuR is driven by subcellular localization into the cytoplasm and formation of multimers of HuR. To develop cell based assays to characterize the ability of small molecules to disrupt this process, a split luciferase assay detecting the formation of HuR dimers was developed. The assays were performed in 96 well plates with clear bottom (Corning Inc., Corning, NY). Cells with designed constructs (30,000-50,000 in number) were plated per well; the constructs were induced by doxycycline (0.75 ug/ml) for 48 hours. The evaluated compounds at different concentrations and the corresponding vehicle as the control were administered for 6 hours. The luminescence signals were detected by using InfinitiM200 plate reader (TECAN, Morrisville, NC) in the presence of the luciferase substrate luciferin (D-Luciferin, potassium salt), which was purchased from GoldBio (St Louis, MO). A multichannel pipette (XL 3000I™, Denville Scientific, South Plainfield, NJ) was used in all procedures to ensure the experiment quality. […]
(§1) Squares represent luminescence signal from reporter representing HuR dimers (U251 cells co-expressing HuR-Nluc and HuR-Cluc constructs); circles represent luminescence signal from control reporter (U251 cells expressing Fluc construct). Results are shown as mean+SD.

[4] = aqueous solubility at pH 7.4; type: physicochemical; details: for solubility: aqueous medium at pH 7.4, pH 7.4, aqueous buffer, read-out: Sol @ pH 7.4
Method: as §2

[5] = biological target: T1, HuR (Homo sapiens, UniProt Q15717); experiment: cell-based split firefly luciferase-HuR dimerization assay; details: for IC50: read-out: HuR IC50
T1 construct: expressed in transfected cells; host or cells: U251 glioma cells, doxycycline-inducible constructs
T1 sequence (Q15717 whole entry): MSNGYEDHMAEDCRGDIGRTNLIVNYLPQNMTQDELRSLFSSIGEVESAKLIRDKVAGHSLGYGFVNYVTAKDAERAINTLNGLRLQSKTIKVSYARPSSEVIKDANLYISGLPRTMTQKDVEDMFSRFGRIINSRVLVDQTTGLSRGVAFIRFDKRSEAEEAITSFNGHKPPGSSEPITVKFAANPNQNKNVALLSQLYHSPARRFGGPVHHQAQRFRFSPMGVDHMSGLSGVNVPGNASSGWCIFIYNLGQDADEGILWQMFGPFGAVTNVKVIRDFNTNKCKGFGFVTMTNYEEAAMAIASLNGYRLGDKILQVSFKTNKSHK
Method: The oncogenic activity of HuR is driven by subcellular localization into the cytoplasm and formation of multimers of HuR. To develop cell based assays to characterize the ability of small molecules to disrupt this process, a split luciferase assay detecting the formation of HuR dimers was developed. The assays were performed in 96 well plates with clear bottom (Corning Inc., Corning, NY). Cells with designed constructs (30,000-50,000 in number) were plated per well; the constructs were induced by doxycycline (0.75 ug/ml) for 48 hours. The evaluated compounds at different concentrations and the corresponding vehicle as the control were administered for 6 hours. The luminescence signals were detected by using InfinitiM200 plate reader (TECAN, Morrisville, NC) in the presence of the luciferase substrate luciferin (D-Luciferin, potassium salt), which was purchased from GoldBio (St Louis, MO). A multichannel pipette (XL 3000I™, Denville Scientific, South Plainfield, NJ) was used in all procedures to ensure the experiment quality.
The assay used the coding sequence of HuR in frame with the N-terminus of firefly luciferase or the C-terminus as depicted in FIG. 2A. When HuR forms dimers in this case, luciferase is generated and with luciferin present, luminescence is generated.
as §1

[6] = Log D at pH 7.4; type: physicochemical
Method: as §2

[7] = Homo sapiens, U-251, 6 h, read-out: Fluc Imax % Inh
[8] = U251 cells co-expressing HuR-Nluc and HuR-Cluc, 6 hours of treatment
[9] = split luciferase HuR dimerization assay, compounds administered for 6 hours

| SMILES | inhibition at 50 µM [3, 7] | HuR N/C Imax % Inh ([5]; Concn 50 uM) | IC50 [5, 8] | IC50 [5, 9] | other results |
| --- | --- | --- | --- | --- | --- |
| CCCN(C)c1ccc2ncc(-c3ccc4[nH]nc(C(C)=O)c4c3)n2n1 [Compound 53, 1-(5-(6-(Methyl(propyl)amino)imidazo[1,2-b]pyridazin-3-yl)-1H-indazol-3-yl)ethan-1-one] | 10% | 72% | 6 µM | 6 µM | half-life [1]: 1.3 min; half-life [2]: 6.3 min; solubility [4]: < 1 µM; logD [6]: > 4.48 |
| CN(c1ccc2ncc(-c3ccc4cc[nH]c4c3)n2n1)C1CCOCC1 [Compound 13] | – | – | – | 28 µM | half-life [1]: 5.6 min; half-life [2]: 6.8 min; solubility [4]: 12.8 µM (≈ 4.45 µg/mL); logD [6]: 2.2 |
| O=C(CCn1ccc(=O)[nH]c1=O)N1CCN(C(=O)C2CC2c2ccc3c(c2)OCO3)CC1 (centres unmarked) [SRI-43654] | 0% | 0% | – | – | – |
| c1ccc(CNc2ccc3ncc(-c4ccc5[nH]ncc5c4)n3n2)cc1 [Compound 47, N-Benzyl-3-(1H-indazol-5-yl)imidazo[1,2-b]pyridazin-6-amine] | 24% | 93% | 3 µM | 3 µM | – |
| c1nn(C2CCOCC2)cc1Nc1ncc2nnn(-c3ccc4cn[nH]c4c3)c2n1 [Compound A-92] | 32% | 93% | 4.5 µM | – | decrease of luminescence signal from cells overexpressing the control Fluc construct ([3]; 6 hours, represents the cytotoxic effect): 32±7%; maximum inhibition of HuR dimerization ([5]; after 6 hours of cell treatment): 93±2% |
| Cc1n[nH]c2cc(-c3cnc4ccc(N(C)C5CCOCC5)nn34)ccc12 [Compound 32, N-Methyl-3-(3-methyl-1H-indazol-6-yl)-N-(tetrahydro-2H-pyran-4-yl)imidazo[1,2-b]pyridazin-6-amine] | – | – | – | > 50 µM | half-life [1]: 7.3 min; half-life [2]: 9 min; solubility [4]: < 1 µM; logD [6]: > 4.35 |
| CN(c1ccc2ncc(-c3ccc4[nH]ncc4c3)n2n1)C1CCOCC1 [Compound 40, 3-(1H-Indazol-5-yl)-N-methyl-N-(tetrahydro-2H-pyran-4-yl)imidazo[1,2-b]pyridazin-6-amine] | – | – | – | 0.3 µM | inhibition at 25 µM [3, 7]: 23%; HuR N/C Imax % Inh ([5]; Concn 25 uM): 90% |
| c1cc2cn[nH]c2cc1-c1cnc2ccc(OC3CCOCC3)nn12 [Compound 58] | 23% | 82% | – | 3 µM | – |
| CN(c1cnn(C2CCOCC2)c1)c1ncc2nnn(-c3ccc4cn[nH]c4c3)c2n1 [Compound 3, 3-(1H-Indazol-6-yl)-N-methyl-N-(1-(tetrahydro-2H-pyran-4-yl)-1H-pyrazol-4-yl)-3H-[1,2,3]triazolo[4,5-d]pyrimidin-5-amine] | – | – | – | – | aqueous solubility (in words) [4]: poor aqueous solubility |
| CN(c1ccc2ncc(-c3ccc4cn[nH]c4c3)n2n1)C1CCC(F)(F)CC1 [Compound 29] | – | – | – | – | half-life [1]: 15.3 min; half-life [2]: 82.8 min; solubility [4]: 77.3 µM (≈ 29.6 µg/mL); HuR IC50 [5, 9]: Insoluble^b; logD [6]: 0.9 |
| c1cc2[nH]ncc2cc1-c1cnc2ccc(NC3CCOCC3)nn12 [Compound 39, 3-(1H-Indazol-5-yl)-N-(tetrahydro-2H-pyran-4-yl)imidazo[1,2-b]pyridazin-6-amine] | – | – | – | 0.3 µM | inhibition at 25 µM [3, 7]: 28%; HuR N/C Imax % Inh ([5]; Concn 25 uM): 94% |
| CN(c1ccc2ncc(-c3cnc4[nH]ncc4c3)n2n1)C1CCOCC1 [Compound 55, N-Methyl-3-(1H-pyrazolo[3,4-b]pyridin-5-yl)-N-(tetrahydro-2H-pyran-4-yl)imidazo[1,2-b]pyridazin-6-amine] | 10% | 90% | 1.2 µM | 1.2 µM | – |
| CCC(C)NS(=O)(=O)c1ccc2oc(=O)ccc2c1 (centres unmarked) [SRI-43652] | 0% | 0% | – | – | – |
| c1cc2[nH]ncc2cc1-c1cnc2ccc(OC3CCOCC3)nn12 [Compound 57, 3-(1H-Indazol-5-yl)-6-((tetrahydro-2H-pyran-4-yl)oxy)imidazo[1,2-b]pyridazine] | 12% | 89% | – | 2 µM | – |
| Clc1ncc2nnn(-c3ccc4cn[nH]c4c3)c2n1 [SRI-42123] | 0% | 0% | – | – | – |
| CN1CCN(Cc2ccc(-c3cnc4[nH]cc(-c5ccc6[nH]ccc6c5)c4c3)cc2)CC1 [SRI-41647] | 4% | 89% | > 25 µM | – | – |
| COc1ncccc1-c1cnn2ccc(N3CCN(C(=O)OC(C)C)CC3)nc12 [SRI-43414] | 28% | 45% | > 50 µM | – | – |
| CCCN(C)c1ccc2ncc(-c3ccc4[nH]ncc4c3)n2n1 [Compound 49, 3-(1H-Indazol-5-yl)-N-methyl-N-propylimidazo[1,2-b]pyridazin-6-amine] | – | – | 0.6 µM | 0.6 µM | inhibition at 100 µM ([3]; Homo sapiens, U-251, 6 h, Concn 100 uM, read-out: Fluc Imax % Inh): 12%; HuR N/C Imax % Inh ([5]; Concn 100 uM): 89% |
| CCCNc1ccc2ncc(-c3ccc4[nH]ncc4c3)n2n1 [Compound 48] | 29% | 90% | 0.7 µM | 0.7 µM | half-life [1]: 2.2 min; half-life [2]: 6.1 min; solubility [4]: 3.2 µM (≈ 0.936 µg/mL) |
| c1cc2cn[nH]c2cc1-n1nnc2cnc(NC3CCOCC3)nc21 [Compound 4, 3-(1H-Indazol-6-yl)-N-(tetrahydro-2H-pyran-4-yl)-3H-[1,2,3]triazolo[4,5-d]pyrimidin-5-amine] | 36% | 85% | 5 µM | – | aqueous solubility (in words) [4]: improved aqueous solubility |
| Cc1ccc(S(=O)(=O)NC(C(=O)Oc2ccc3c4c(c(=O)oc3c2C)CCC4)c2ccccc2)cc1 (centres unmarked) [SRI-43651] | 0% | 0% | – | – | – |
| CN(CCNc1ccc2ncc(-c3ccc(C(N)=O)cc3)n2n1)C(=O)OC(C)(C)C [SRI-43415] | 9% | 57% | 40 µM | – | – |
| O=C(C1CCCC1)N1CCN(C(=O)C2CC2c2ccc3c(c2)OCO3)CC1 (centres unmarked) [SRI-43655] | 10% | 28% | > 50 µM | – | – |
| CN1CCN(c2ccc3ncc(-c4ccc5[nH]ncc5c4)n3n2)CC1 [Compound 52, 3-(1H-Indazol-5-yl)-6-(4-methylpiperazin-1-yl)imidazo[1,2-b]pyridazine] | 13% | 90% | 8 µM | 8 µM | – |
| CN(c1ccc2ncc(-c3ccc4nccn4c3)n2n1)C1CCOCC1 [Compound 18, 3-(Imidazo[1,2-a]pyridin-6-yl)-N-methyl-N-(tetrahydro-2H-pyran-4-yl)imidazo[1,2-b]pyridazin-6-amine] | 6% | 89% | 3 µM | 3 µM | – |
